24 compounds from patent US7728028B2, “Substituted imidazoline compounds” (Gruenenthal GmbH, priority 2005, dated 2010) can be followed below.

T1 sequence (P35372 whole entry): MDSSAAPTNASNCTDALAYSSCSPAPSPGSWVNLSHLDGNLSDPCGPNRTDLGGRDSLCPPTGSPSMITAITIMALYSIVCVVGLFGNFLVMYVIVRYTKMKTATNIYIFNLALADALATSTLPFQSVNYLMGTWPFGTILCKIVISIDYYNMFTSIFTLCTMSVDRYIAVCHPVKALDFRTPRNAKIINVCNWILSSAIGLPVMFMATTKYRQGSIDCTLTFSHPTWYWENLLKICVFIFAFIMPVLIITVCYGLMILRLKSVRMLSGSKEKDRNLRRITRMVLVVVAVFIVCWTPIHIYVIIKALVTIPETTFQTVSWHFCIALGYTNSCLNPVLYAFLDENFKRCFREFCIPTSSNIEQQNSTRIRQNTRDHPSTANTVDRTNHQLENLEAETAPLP

This assay has as its target T1, human μ-opiate receptor (Homo sapiens, UniProt P35372).
T1 construct: purchased PerkinElmer Life Sciences, Zaventem, Belgium RB-HOM; host or cells: CHO-K1 cells (recombinant expression; membrane preparation)
Kind of assay: Affinity for the human μ-opiate receptor ([3H]-naloxone displacement, SPA). To be noted: Table 2, Examples 11-161; test substance 1 μmole/l; inhibition of specific [3H]-naloxone binding; CHO-K1 membranes; read-out: μ-Opioid receptor, % inhibition [1 μM]. The protocol: Investigations on the Efficacy of the Compounds According to the Invention Method for Determining the Affinity for the Human μ-Opiate Receptor
The receptor affinity for the human μ-opiate receptor is determined in a homogeneous batch in microtiter plates. For this purpose dilution series of the substances to be tested are incubated with a receptor membrane preparation (15-40 μg protein/250 μl incubation batch) of CHO-K1 cells, which express the human μ-opiate receptor (RB-HOM receptor membrane preparation from PerkinElmer Life Sciences, Zaventem, Belgium), in the presence of 1 nmole/l of the radioactive ligand [^3H]-naloxone (NET719, PerkinElmer Life Sciences company, Zaventem, Belgium) and 1 mg WGA-SPA beads (wheat germ agglutinin SPA beads from Amersham/Pharmacia, Freiburg, Germany) in a total volume of 250 μl for 90 minutes at room temperature. 50 mmole/l of Tris-HCl supplemented with 0.06% bovine serum albumin is used as incubation buffer. In order to determine the non-specific binding, 100 μmole/l of naloxone is additionally added. After the end of the 90 minutes' incubation time the microtiter plates are centrifuged for 20 minutes at 1000 g and the radioactivity is measured in a beta counter (Microbeta-Trilux, PerkinElmer Wallac, Freiburg, Germany). The percentage displacement of the radioactive ligand from its binding to the human μ-opiate receptor at a concentration of the test substances of 1 μmole/l is determined and is given as percentage inhibition of the specific binding.
Broadly, the inhibition is the drop in the measured response relative to a control, in per cent. Take `CCCCC1(C(=O)OC)N=CN(C2CCCCC2)C1C1CCC(C(c2ccc(Cl)cc2)N(C)C)CC1` (stereo not drawn) [Example 16, 4-butyl-5-{4-[(4-chlorophenyl)-dimethylaminomethyl]-cyclohexyl}-1-cyclohexyl-4,5-dihydro-1H-imidazole-4-carboxylic acid methyl ester]: the inhibition at 1 µM is 92%.

Turning to `CCCC1(C(=O)OC)N=CN(C2CCCCC2)C1CC1CCC(C(CCc2ccccc2)N(C)C)CC1` (stereo not drawn) [Example 108, 1-cyclohexyl-5-[4-(1-dimethylamino-3-phenylpropyl)-cyclohexylmethyl]-4-propyl-4,5-dihydro-1H-imidazole-4-carboxylic acid methyl ester], the inhibition at 1 µM amounted to 86%.

As for `COC(=O)CCC1(C(=O)OC)N=CN(C2CCCCC2)C1CC1CCC(C(c2ccc(Cl)cc2)N(C)C)CC1` (stereo not drawn) [Example 53, 5-{4-[(4-chlorophenyl)-dimethylaminomethyl]-cyclohexylmethyl}-1-cyclohexyl-4-(2-methoxycarbonylethyl)-4,5-dihydro-1H-imidazole-4-carboxylic acid methyl ester], the inhibition at 1 µM was 96%.

`COC(=O)C1(CC(C)C)N=CN(CCc2ccccc2)C1C1CCC(C(c2ccc(Cl)cc2)N(C)C)CC1` (stereo not drawn) [Example 40, 5-{4-[(4-chlorophenyl)-dimethylaminomethyl]-cyclohexyl}-4-isobutyl-1-phenethyl-4,5-dihydro-1H-imidazole-4-carboxylic acid methyl ester]: the inhibition at 1 µM worked out at 95%.

In the case of `CCCN1C=NC(CCSC)(C(=O)OC)C1CC1CCC(C(CCc2ccccc2)N(C)C)CC1` (stereo not drawn) [Example 121, 5-[4-(1-dimethylamino-3-phenylpropyl)-cyclohexylmethyl]-4-(2-methylsulfanylethyl)-1-propyl-4,5-dihydro-1H-imidazole-4-carboxylic acid methyl ester], the inhibition at 1 µM was determined as 77%.

On to `COC(=O)C1(Cc2ccc(Cl)cc2)N=CN(CCc2ccccc2)C1C1CCC(C(c2cccc(F)c2)N(C)C)CC1` (stereo not drawn) [Example 38, 4-(4-chlorobenzyl)-5-{4-[dimethylamino-(3-fluorophenyl)-methyl]-cyclohexyl}-1-phenethyl-4,5-dihydro-1H-imidazole-4-carboxylic acid methyl ester], for which the inhibition at 1 µM is 84%.

As to `CCCCN1C=NC(CCCC)(C(=O)OC)C1CC1CCC(C(c2ccc(Cl)cc2)N(C)C)CC1` (stereo not drawn) [Example 36, 1,4-dibutyl-5-{4-[(4-chlorophenyl)-dimethylaminomethyl]-cyclohexylmethyl}-4,5-dihydro-1H-imidazole-4-carboxylic acid methyl ester], the inhibition at 1 µM was 97%.

Regarding `CCCC1(C(=O)OC)N=CN(C2CCCCC2)C1CC1CCC(C(c2cccc(F)c2)N(C)C)CC1` (stereo not drawn) [Example 102, 1-cyclohexyl-5-{4-[dimethylamino-(3-fluorophenyl)-methyl]-cyclohexylmethyl}-4-propyl-4,5-dihydro-1H-imidazole-4-carboxylic acid methyl ester], the inhibition at 1 µM came to 91%.

As to `COC(=O)C1(Cc2ccc(Cl)cc2)N=CN(C2CCCCC2)C1CC1CCC(C(c2ccc(Cl)cc2)N(C)C)CC1` (stereo not drawn) [Example 18, 4-(4-chlorobenzyl)-5-{4-[(4-chlorophenyl)-dimethylaminomethyl]-cyclohexylmethyl}-1-cyclohexyl-4,5-dihydro-1H-imidazole-4-carboxylic acid methyl ester], the inhibition at 1 µM stood at 90%.

On to `COC(=O)C1(CSCc2ccccc2)N=CN(C2CCCCC2)C1C1CCC(C(c2ccc(Cl)cc2)N(C)C)CC1` (stereo not drawn) [Example 52, 4-benzylsulfanylmethyl-5-{4-[(4-chlorophenyl)-dimethylaminomethyl]-cyclohexyl}-1-cyclohexyl-4,5-dihydro-1H-imidazole-4-carboxylic acid methyl ester], for which the inhibition at 1 µM is 99%.

For `CCCN1C=NC(CSC)(C(=O)OC)C1C1CCC(C(c2cccc(F)c2)N(C)C)CC1` (stereo not drawn) [Example 57, 5-{4-[dimethylamino-(3-fluorophenyl)-methyl]-cyclohexyl}-4-methylsulfanylmethyl-1-propyl-4,5-dihydro-1H-imidazole-4-carboxylic acid methyl ester], the inhibition at 1 µM is 86%.

On to `COC(=O)CCC1(C(=O)OC)N=CN(C2CCCCC2)C1C1CCC(C(c2ccc(Cl)cc2)N(C)C)CC1` (stereo not drawn) [Example 51, 5-{4-[(4-chlorophenyl)-dimethylaminomethyl]-cyclohexyl}-1-cyclohexyl-4-(2-methoxycarbonylethyl)-4,5-dihydro-1H-imidazole-4-carboxylic acid methyl ester], for which the inhibition at 1 µM was found to be 96%.

For `CCCN1C=NC(C(=O)OC)(C(C)CC)C1CC1CCC(C(c2ccc(Cl)cc2)N(C)C)CC1` (stereo not drawn) [Example 62, 4-sec-butyl-5-{4-[(4-chlorophenyl)-dimethylaminomethyl]-cyclohexylmethyl}-1-propyl-4,5-dihydro-1H-imidazole-4-carboxylic acid methyl ester], the inhibition at 1 µM is 98%.

In the case of `CCCCN1C=NC(CCC(=O)OC)(C(=O)OC)C1CC1CCC(C(c2cccc(F)c2)N(C)C)CC1` (stereo not drawn) [Example 72, 1-butyl-5-{4-[dimethylamino-(3-fluorophenyl)-methyl]-cyclohexylmethyl}-4-(2-methoxycarbonylethyl)-4,5-dihydro-1H-imidazole-4-carboxylic acid methyl ester], the inhibition at 1 µM stood at 95%.

Take `COC(=O)C1(CCSC)N=CN(C2CCCCC2)C1CC1CCC(C(CCc2ccccc2)N(C)C)CC1` (stereo not drawn) [Example 109, 1-cyclohexyl-5-[4-(1-dimethylamino-3-phenylpropyl)-cyclohexylmethyl]-4-(2-methylsulfanyl-ethyl)-4,5-dihydro-1H-imidazole-4-carboxylic acid methyl ester]: the inhibition at 1 µM turned out to be 87%.

Regarding `COC(=O)C1(CSC)N=CN(C2CCCCC2)C1CC1CCC(C(c2cccc(F)c2)N(C)C)CC1` (stereo not drawn) [Example 149, 1-cyclohexyl-5-{4-[dimethylamino-(3-fluorophenyl)-methyl]-cyclohexylmethyl}-4-methylsulfanylmethyl-4,5-dihydro-1H-imidazole-4-carboxylic acid methyl ester], the inhibition at 1 µM was 99%.

With `CCCN1C=NC(Cc2ccc(Cl)cc2)(C(=O)OC)C1CC1CCC(C(c2ccc(Cl)cc2)N(C)C)CC1` (stereo not drawn) [Example 27, 4-(4-chlorobenzyl)-5-{4-[(4-chlorophenyl)-dimethylaminomethyl]-cyclohexylmethyl}-1-propyl-4,5-dihydro-1H-imidazole-4-carboxylic acid methyl ester], the inhibition at 1 µM was 96%.

Turning to `CCCCN1C=NC(CCC(=O)OC)(C(=O)OC)C1CC1CCC(C(c2ccc(Cl)cc2)N(C)C)CC1` (stereo not drawn) [Example 70, 1-butyl-5-{4-[(4-chlorophenyl)-dimethylaminomethyl]-cyclohexylmethyl}-4-(2-methoxycarbonylethyl)-4,5-dihydro-1H-imidazole-4-carboxylic acid methyl ester], the inhibition at 1 µM worked out at 96%.

`CCCN1C=NC(CSCc2ccccc2)(C(=O)OC)C1C1CCC(C(c2cccc(F)c2)N(C)C)CC1` (stereo not drawn) [Example 58, 4-benzylsulfanylmethyl-5-{4-[dimethylamino-(3-fluorophenyl)-methyl]-cyclohexyl}-1-propyl-4,5-dihydro-1H-imidazole-4-carboxylic acid methyl ester]: the inhibition at 1 µM stood at 81%.

As for `CCCN1C=NC(CCC(=O)OC)(C(=O)OC)C1CC1CCC(C(c2cccc(F)c2)N(C)C)CC1` (stereo not drawn) [Example 157, 5-{4-[dimethylamino-(3-fluorophenyl)-methyl]-cyclohexylmethyl}-4-(2-methoxycarbonylethyl)-1-propyl-4,5-dihydro-1H-imidazole-4-carboxylic acid methyl ester], the inhibition at 1 µM was 91%.

With `CCCC1(C(=O)OC)N=CN(Cc2ccccc2)C1CC1CCC(C(c2cccc(F)c2)N(C)C)CC1` (stereo not drawn) [Example 138, 1-benzyl-5-{4-[dimethylamino-(3-fluorophenyl)-methyl]-cyclohexylmethyl}-4-propyl-4,5-dihydro-1H-imidazole-4-carboxylic acid methyl ester], the inhibition at 1 µM worked out at 101%.

Regarding `COC(=O)C1(Cc2ccc(Cl)cc2)N=CN(Cc2ccccc2)C1CC1CCC(C(c2ccc(Cl)cc2)N(C)C)CC1` (stereo not drawn) [Example 113, 1-benzyl-4-(4-chlorobenzyl)-5-{4-[(4-chlorophenyl)-dimethylaminomethyl]-cyclohexylmethyl}-4,5-dihydro-1H-imidazole-4-carboxylic acid methyl ester], the inhibition at 1 µM came out at 92%.

`COC(=O)C1(CCSC)N=CN(Cc2ccccc2)C1CC1CCC(C(c2ccc(F)cc2)N(C)C)CC1` (stereo not drawn) [Example 142, 1-benzyl-5-{4-[dimethylamino-(4-fluorophenyl)-methyl]-cyclohexylmethyl}-4-(2-methylsulfanyl-ethyl)-4,5-dihydro-1H-imidazole-4-carboxylic acid methyl ester]: the inhibition at 1 µM amounted to 97%.

With `COC(=O)C1(Cc2ccc(Cl)cc2)N=CN(C2CCCCC2)C1CC1CCC(C(c2cccs2)N(C)C)CC1` (stereo not drawn) [Example 20, 4-(4-chlorobenzyl)-1-cyclohexyl-5-[4-(dimethylamino-thiophen-2-yl-methyl)-cyclohexylmethyl]-4,5-dihydro-1H-imidazole-4-carboxylic acid methyl ester], the inhibition at 1 µM was found to be 95%.
